Source: publication PMC12614342, “Azetidine amino acid biosynthesis by non-haem iron-dependent enzymes” (Nature Chemistry, 2025)

Experiments:
PolF [1] = target: T1, PolF (Streptomyces asoensis, UniProt C1IC29); details: Fe(II)2 form; L-Ile bidentate on Fe1; TEV-cleaved tagless protein, crystals grown with 15 mM L-Ile, pH 8.5
PolE = target: T2, PolE (Streptomyces asoensis, UniProt C1IC30); details: Fe(II), BH4, O2, ascorbate; 50 mM HEPES pH 7.6, 25 °C
T2 construct: gene Saso_24180

PolF [2] = target: T1, PolF; details: Fe(II), O2, ascorbate; 50 mM HEPES pH 7.6, 25 °C (stopped-flow 5 °C, no ascorbate)

T2 sequence (C1IC30 entry or part of it): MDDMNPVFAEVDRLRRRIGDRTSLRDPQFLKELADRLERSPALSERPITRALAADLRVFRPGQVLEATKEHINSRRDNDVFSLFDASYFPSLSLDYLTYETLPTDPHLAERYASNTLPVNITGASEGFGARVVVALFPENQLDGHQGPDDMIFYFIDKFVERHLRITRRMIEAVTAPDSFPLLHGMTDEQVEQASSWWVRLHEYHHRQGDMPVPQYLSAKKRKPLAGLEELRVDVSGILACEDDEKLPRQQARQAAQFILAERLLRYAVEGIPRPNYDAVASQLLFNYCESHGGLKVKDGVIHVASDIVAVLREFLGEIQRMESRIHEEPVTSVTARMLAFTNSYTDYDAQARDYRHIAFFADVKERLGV

| SMILES | X-ray crystal structure of the complex (PolF [1]) | LC-MS of dansylated desaturation product (PolE) | LC-MS of dansylated products; stopped-flow at 614 nm (PolF [2]) |
| --- | --- | --- | --- |
| CC[C@H](C)[C@H](N)C(=O)O [L-Ile] | The L-Ile substrate directly coordinates Fe1 in a bidentate fashion | PolE catalysed the desaturation of L-Ile in the presence of BH4 | – |
| CC(C)[C@H](N)C(=O)O [L-Val] | – | – | the reaction with L-Val yielded a product with a −4-Da modification |
